Assay results from PubChem BioAssay AID328 (DTP/NCI, 2004).
Inconclusive results and toxic doses are left out. The calls were made as follows: active = survival T/C of 150% or more; inactive = T/C below 125% in these data.

Tested on: BDF1 mice, P388 leukemia ip, median survival T/C
Assay: NCI In Vivo Anticancer Drug Screen. Data for tumor model P388 Leukemia (intraperitoneal) in B6D2F1 (BDF1) mice
Conditions: endpoint: median survival time, higher = longer survival
Method in brief: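 Mice carrying the transplantable tumour receive compound or vehicle. Survival is followed in each arm, and the treated measure is divided by the vehicle measure.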

[1] = dose: 50.0 mg/kg/injection, schedule: Q04DX003 (ip), vehicle: saline
[2] = dose: 100.0 mg/kg/injection, schedule: Q04DX003 (ip), vehicle: saline
[3] = dose: 200.0 mg/kg/injection, schedule: Q04DX003 (ip), vehicle: saline
[4] = dose: 400.0 mg/kg/injection, schedule: Q04DX003 (ip), vehicle: saline
[5] = dose: 100.0 mg/kg/injection, schedule: Q01DX009 (ip), vehicle: saline
[6] = dose: 200.0 mg/kg/injection, schedule: Q01DX009 (ip), vehicle: saline
[7] = dose: 400.0 mg/kg/injection, schedule: Q01DX009 (ip), vehicle: saline
[8] = dose: 3.13 mg/kg/injection, schedule: Q01DX009 (ip), vehicle: saline with Tween-80
[9] = dose: 50.0 mg/kg/injection, schedule: Q01DX009 (ip), vehicle: saline with Tween-80
[10] = dose: 100.0 mg/kg/injection, schedule: Q01DX009 (ip), vehicle: saline with Tween-80
[11] = dose: 200.0 mg/kg/injection, schedule: Q01DX009 (ip), vehicle: saline with Tween-80
[12] = dose: 400.0 mg/kg/injection, schedule: Q01DX009 (ip), vehicle: saline with Tween-80
[13] = dose: 12.5 mg/kg/injection, schedule: Q01DX009 (ip), vehicle: saline with Tween-80
[14] = dose: 25.0 mg/kg/injection, schedule: Q01DX009 (ip), vehicle: saline with Tween-80
[15] = dose: 100.0 mg/kg/injection, schedule: Q04DX003 (ip), vehicle: Klucel (hydroxypropylcellulose) (HPC)
[16] = dose: 200.0 mg/kg/injection, schedule: Q04DX003 (ip), vehicle: Klucel (hydroxypropylcellulose) (HPC)
[17] = dose: 400.0 mg/kg/injection, schedule: Q04DX003 (ip), vehicle: Klucel (hydroxypropylcellulose) (HPC)
[18] = dose: 100.0 mg/kg/injection, schedule: Q01DX009 (ip), vehicle: Klucel (hydroxypropylcellulose) (HPC)
[19] = dose: 200.0 mg/kg/injection, schedule: Q01DX009 (ip), vehicle: Klucel (hydroxypropylcellulose) (HPC)
[20] = dose: 400.0 mg/kg/injection, schedule: Q01DX009 (ip), vehicle: Klucel (hydroxypropylcellulose) (HPC)
[21] = dose: 100.0 mg/kg/injection, schedule: Q04DX003 (ip), vehicle: saline with Tween-80
[22] = dose: 200.0 mg/kg/injection, schedule: Q04DX003 (ip), vehicle: saline with Tween-80
[23] = dose: 400.0 mg/kg/injection, schedule: Q04DX003 (ip), vehicle: saline with Tween-80

Measured: T/C

CCOC(=O)/C=C(/CC(=O)OCC)OCC
inactive: dose: 25.0 mg/kg/injection, schedule: Q04DX003 (ip), vehicle: saline 106 % of control | [1] 100 % of control | [2] 115 % of control | [3] 106 % of control | [4] 112 % of control

O=c1[nH]cc[nH]1
inactive: [5] 95 % of control | [2] 100 % of control | [6] 114 % of control | [3] 108 % of control | dose: 264.0 mg/kg/injection, schedule: Q01DX009 (ip), vehicle: saline 122 % of control | [7] 122 % of control | [4] 104 % of control

CSC(=S)NN=C(C)C
inactive: [8] 96 % of control

C(=N\OCCc1ccccc1)/c1cccnc1
inactive: dose: 100.0 mg/kg/injection, schedule: Q01DX009 (ip), vehicle: saline sonified 100 % of control | dose: 200.0 mg/kg/injection, schedule: Q01DX009 (ip), vehicle: saline sonified 110 % of control

COc1ccc(N=C2C(=O)Nc3ccc(Br)cc32)cc1
inactive: [9] 100 % of control | [10] 105 % of control | [11] 104 % of control | [12] 104 % of control

C#C/C=C/CC1O/C(=C(\Br)CC)C/C=C\CC1Cl (stereo not given)
inactive: dose: 12.5 mg/kg/injection, schedule: Q01DX009 (ip), vehicle: other 99 % of control | dose: 25.0 mg/kg/injection, schedule: Q01DX009 (ip), vehicle: other 114 % of control | dose: 50.0 mg/kg/injection, schedule: Q01DX009 (ip), vehicle: other 99 % of control

C=CC(=O)NCCCCC(N)C(=O)O (stereo not given)
inactive: [13] 108 % of control | [14] 106 % of control | [9] 113 % of control

CC(C)(C)OC(=O)NCC(=O)NNC(=O)OC(C)(C)C
inactive: [2] 104 % of control | [3] 113 % of control | [4] 104 % of control

O=[N+]([O-])c1cc([N+](=O)[O-])c2ccccc2c1NS(=O)(=O)c1ccc(Br)cc1
inactive: [14] 112 % of control | [9] 113 % of control

BrC1C2C=CCC1CC2 (stereo not given)
inactive: [5] 100 % of control | [2] 91 % of control | [6] 90 % of control | [3] 91 % of control | [7] 104 % of control | [4] 95 % of control

Nc1cc(Cl)cc(Cl)c1C(=O)O
inactive: dose: 100.0 mg/kg/injection, schedule: Q01DX001 (ip), vehicle: other 95 % of control | dose: 200.0 mg/kg/injection, schedule: Q01DX001 (ip), vehicle: other 100 % of control | dose: 400.0 mg/kg/injection, schedule: Q01DX001 (ip), vehicle: other 95 % of control

Cc1c(Cl)c(Cl)c(C)c(Cl)c1Cl
inactive: [15] 94 % of control | [16] 100 % of control | [17] 100 % of control

CC/C(C)=C1\OC(=O)C(C)C(O)C(Cc2cccnc2)NC(=O)C(NC(=O)c2ncccc2O)C(C)OC1=O (stereo not given)
inactive: [8] 97 % of control | dose: 6.25 mg/kg/injection, schedule: Q01DX009 (ip), vehicle: saline with Tween-80 106 % of control | [13] 103 % of control | [14] 93 % of control

NNc1ccc([N+](=O)[O-])c2[nH][nH]c(=O)c12
inactive: [9] 105 % of control | [10] 107 % of control | [11] 107 % of control

Cc1ccc(C(=O)/C=C/c2ccccc2O)cc1
inactive: dose: 50.0 mg/kg/injection, schedule: Q01DX009 (ip), vehicle: Klucel (hydroxypropylcellulose) (HPC) 99 % of control | [18] 109 % of control | [19] 107 % of control | [20] 101 % of control

C/C(=C\c1ccccc1)C(C)(C)C(=O)O
inactive: [9] 102 % of control | [10] 96 % of control | [11] 99 % of control

CCOC(=O)/C(C#N)=C/c1ccc(O)c(OC)c1
inactive: [18] 105 % of control | [15] 95 % of control | [19] 110 % of control | [16] 100 % of control | [20] 95 % of control | [17] 100 % of control

Nc1noc(N)n1
inactive: [2] 109 % of control | [3] 100 % of control | [4] 104 % of control

CS(=O)(=O)c1ncc2cnccn12
inactive: dose: 100.0 mg/kg/injection, schedule: Q04DX003 (ip), vehicle: water 110 % of control

CCCCCCCCCCCC[N+](C)(C)C (tested in a mixture with another compound)
inactive: dose: 9.2 mg/kg/injection, schedule: Q01DX009 (ip), vehicle: saline 107 % of control

c1cc[c]([Sn]([c]2ccccc2)([c]2ccccc2)[c]2ccccc2)cc1
inactive: [10] 94 % of control | [11] 94 % of control | [12] 97 % of control

COc1ccc(C=Nc2ccccc2N=Cc2ccc(OC)c(OC)c2)cc1OC
inactive: [10] 113 % of control | [21] 110 % of control | [11] 100 % of control | [22] 110 % of control | [12] 100 % of control | [23] 100 % of control

Oc1ccccc1C=NC1CCCCC1.Oc1ccccc1C=NC1CCCCC1.[Cu+2]
inactive: dose: 100.0 mg/kg/injection, schedule: Q01DX001 (ip), vehicle: saline sonified 90 % of control | dose: 200.0 mg/kg/injection, schedule: Q01DX001 (ip), vehicle: saline sonified 90 % of control | dose: 400.0 mg/kg/injection, schedule: Q01DX001 (ip), vehicle: saline sonified 109 % of control

Cn1c2c(c3ccccc3c1=O)C(=O)c1ccccc1-2
inactive: [9] 101 % of control | [11] 90 % of control

CN(C)CCC(O)Cc1ccccc1 (stereo not given)
inactive: dose: 50.0 mg/kg/injection, schedule: Q04DX003 (ip), vehicle: acetone 100 % of control | dose: 100.0 mg/kg/injection, schedule: Q04DX003 (ip), vehicle: acetone 100 % of control | dose: 200.0 mg/kg/injection, schedule: Q04DX003 (ip), vehicle: acetone 105 % of control

C1CN(CC2COC(CN3CCOCC3)CO2)CCO1 (stereo not given)
inactive: [2] 114 % of control | [3] 104 % of control | [4] 104 % of control

Cc1ccc(S(=O)(=O)N(C)c2ccc(C#N)c(Cl)c2Cl)cc1
inactive: [21] 90 % of control | [22] 86 % of control | [23] 90 % of control

CN(C)/C=N/n1cnc2c(ncn2C2OC(CO)C(O)C2O)c1=O (stereo not given)
inactive: [1] 108 % of control | [2] 108 % of control | [3] 111 % of control | [4] 101 % of control

CCc1ccccc1OS(=O)(=O)c1ccccc1[N+](=O)[O-]
inactive: [15] 100 % of control | [16] 100 % of control | [17] 100 % of control

O=C1c2ccccc2C(=O)N1CNc1ncccn1
inactive: dose: 6.25 mg/kg/injection, schedule: Q01DX005 (ip), vehicle: saline with Tween-80 95 % of control | dose: 12.5 mg/kg/injection, schedule: Q01DX005 (ip), vehicle: saline with Tween-80 98 % of control | dose: 25.0 mg/kg/injection, schedule: Q01DX005 (ip), vehicle: saline with Tween-80 90 % of control | dose: 100.0 mg/kg/injection, schedule: Q01DX005 (ip), vehicle: saline with Tween-80 108 % of control | dose: 200.0 mg/kg/injection, schedule: Q01DX005 (ip), vehicle: saline with Tween-80 105 % of control

CC1=C2C(=C(CBr)OS1(=O)=O)C(=O)c1ccccc12
inactive: [21] 104 % of control | [22] 104 % of control | [23] 104 % of control
